The data set in a line: logP by reversed-phase HPLC (EEC Directive 79/831 Annex V.A8). The data set is classed as physicochemical. Particulars: method [a]: LC-MS, acidic range pH 2.7, 0.1% aqueous formic acid / acetonitrile, linear gradient 10% to 95% acetonitrile, C18 reversed phase. On the procedure: The logP values were measured in accordance with EEC Directive 79/831 Annex V.A8 by HPLC (High Performance Liquid Chromatography) using reversed-phase columns (C 18) by the following methods:
[a] The LC-MS determination in the acidic range is effected at pH 2.7 with 0.1% aqueous formic acid and acetonitrile (contains 0.1% formic acid) as eluents; linear gradient from 10% acetonitrile to 95% acetonitrile.
As for `CC(C)(C)C(O)(CSc1ccc(Cl)s1)c1cncs1` (stereo not shown) [Compound 4], the logP entry is “logP 3.68^[a]; [M]^+ = 334”.

For the compound `CC(C)(C)C(O)(CSCc1ccc(Cl)cc1Cl)c1cncs1` (stereo not shown) [Compound 10], the logP result is “logP 4.29^[a]; [M]^+ = 375”. Regarding `Cc1ccc(SCC(O)(c2cncs2)C(C)(C)C)cc1` (stereo not shown) [Compound 12], the logP result is “logP 3.63^[a]; [M]^+ = 307”. On to `CC(C)(C)C(O)(CSc1ccc(Cl)cc1)c1cncs1` (stereo not shown) [Compound 17], for which the logP result is “log p 3.64^[a]”. With `COc1ccc(SCC(O)(c2cncs2)C(C)(C)C)cc1` (stereo not shown) [Compound 18] the entry was “log p 3.16^[a]”; with `CC(C)(C)c1ccc(SCC(O)(c2cncs2)C(C)(C)C)cc1` (stereo not shown) [Compound 19], “log p 3.7^[a]”.

Regarding `CC(C)(C)C(O)(CSc1cccc(Br)c1)c1cncs1` (stereo not shown) [Compound 20], the logP entry was “log p 3.74^[a]”.

As to `CC(C)(C)C(O)(CSc1ccccc1Br)c1cncs1` (stereo not shown) [Compound 21], the logP entry is “log p 3.5^[a]”. Turning to `Cc1ccc([S+]([O-])CC(O)(c2cncs2)C(C)(C)C)c(C)c1` (stereo not shown) [Compound 23], the logP result is “log p 2.92^[a]”. `CC(C)C(O)(CSc1nncn1-c1c(F)cccc1F)c1cncs1` (stereo not shown) [Compound 24]: the logP entry was “log p 1.8^[a]”. Regarding `CC(C)C(O)(CSc1nncn1-c1ccccc1)c1cncs1` (stereo not shown) [Compound 25], the logP entry was “log p 1.76^[a]”. In the case of `CC(C)(C)C(O)(CSC1CCCCC1)c1cncs1` (stereo not shown) [Compound 26], the logP entry was “log p 4.17^[a]”.

Regarding `CC(C)(C)C(O)(CSc1ccccc1Br)c1cnc(Sc2ccccc2Br)s1` (stereo not shown) [Compound 27], the logP entry is “log p 5.78^[a]”. Take `Cc1ccc(SCC(O)(c2cncs2)C(C)(C)C)c(C)c1` (stereo not shown) [Compound 28]: the logP entry was “log p 4.02^[a]”. Take `CC(C)C(O)(CSc1nncn1C1CCCCC1)c1cncs1` (stereo not shown) [Compound 31]: the logP result was “log p 2.04^[a]”. Turning to `CC(C)(C)C(O)(CSc1ccc2ccccc2c1)c1cncs1` (stereo not shown) [Compound 35], the logP result is “log p 3.92^[a]”. In the case of `CC(C)(C)C(O)(CSc1cccc2ccccc12)c1cncs1` (stereo not shown) [Compound 36], the logP result was “log p 3.87^[a]”. Take `Cc1ccc(SCC(O)(c2cncs2)C(C)(C)C)cc1` (stereo not shown) [Compound 37]: the logP entry is “log p 3.63^[a]”. For `CC(C)(C)C(O)(CSc1cccc(Oc2ccccc2)c1)c1cncs1` (stereo not shown) [Compound 39], the logP entry was “log p 4.33^[a]”. Turning to `CC(C)(C)C(O)(CSc1ccc(C(=O)NC2CC2)cc1Cl)c1cncs1` (stereo not shown) [Compound 40], the logP result is “log p 2.54^[a]”.

On to `COC(=O)c1ccc(SCC(O)(c2cncs2)C(C)(C)C)cc1` (stereo not shown) [Compound 41], for which the logP entry was “log p 3.01^[a]”. With `CC(=O)c1ccccc1SCC(O)(c1cncs1)C(C)(C)C` (stereo not shown) [Compound 42] the entry was “log p 2.66^[a]”; with `CC(C)(C)C(O)(CSc1cc(C(F)(F)F)ccc1Cl)c1cncs1` (stereo not shown) [Compound 43], “log p 4.02^[a]”; with `CCOC(=O)c1ccc(SCC(O)(c2cncs2)C(C)(C)C)c(C)c1` (stereo not shown) [Compound 45], “log p 3.7 ^[a]”. On to `CC(Oc1ccc(SCC(O)(c2cncs2)C(C)(C)C)cc1)C(C)(C)C` (stereo not shown) [Compound 46], for which the logP entry was “log p 5.53^[a]”. On to `CC(C)(C)C(O)(CSc1ccc(F)cc1F)c1cncs1` (stereo not shown) [Compound 47], for which the logP result is “log p 3.26^[a]”.

Take `CC(C)(C)C(=O)Nc1ccc(SCC(O)(c2cncs2)C(C)(C)C)cc1` (stereo not shown) [Compound 48]: the logP entry was “log p 3.14^[a]”. With `CC(=O)c1ccc(SCC(O)(c2cncs2)C(C)(C)C)c(Cl)c1` (stereo not shown) [Compound 49] the entry was “log p 2.91^[a]”. With `CC(C)(C)C(O)(CSc1ccc(F)c(F)c1)c1cncs1` (stereo not shown) [Compound 50] the entry was “log p 3.3^[a]”; with `CSc1ccc(SCC(O)(c2cncs2)C(C)(C)C)cc1` (stereo not shown) [Compound 51], “log p 3.59^[a]”. For `CCOC(=O)c1ccc(SCC(O)(c2cncs2)C(C)(C)C)cc1` (stereo not shown) [Compound 52], the logP entry is “log p 3.41^[a]”.

For the origin of these results see patent US8445691B2, “Heterocyclic thiosubstituted alkanol derivatives” (Bayer CropScience AG, priority 2010, dated 2013).
